Test results as given in PubChem BioAssay AID222 (DTP/NCI, 2004).
Several values for one entry are separate records, joined by “and”; a condition that tells them apart may be missing. Identical values can stand only once. Toxic doses and inconclusive results are not listed.

System: C57BL/6 mice, intracerebral ependymoblastoma, median survival T/C
Assay: NCI In Vivo Anticancer Drug Screen. Data for tumor model Ependymoblastoma (intracerebral) in C57BL/6 mice
Conditions: endpoint: median survival time, higher = longer survival
Description: The antitumor activity of compounds was measured in mice bearing transplantable tumors. Survival or tumor size were measured and the results are expressed as the measurement made in the treated group (T) divided by the measurement made in the vehicle treated control group (C). The tumor model used in this assay is Ependymoblastoma (intracerebral) in C57BL/6 mice

[1] = dose: 0.12 mg/kg/injection, schedule: Q01DX005 (ip), vehicle: Klucel (hydroxypropylcellulose) (HPC)
[2] = dose: 0.25 mg/kg/injection, schedule: Q01DX005 (ip), vehicle: Klucel (hydroxypropylcellulose) (HPC)
[3] = dose: 2.0 mg/kg/injection, schedule: Q01DX001 (ip), vehicle: Klucel (hydroxypropylcellulose) (HPC)
[4] = dose: 4.0 mg/kg/injection, schedule: Q01DX001 (ip), vehicle: Klucel (hydroxypropylcellulose) (HPC)
[5] = dose: 8.0 mg/kg/injection, schedule: Q01DX001 (ip), vehicle: Klucel (hydroxypropylcellulose) (HPC)
[6] = dose: 16.0 mg/kg/injection, schedule: Q01DX001 (ip), vehicle: Klucel (hydroxypropylcellulose) (HPC)
[7] = dose: 8.0 mg/kg/injection, schedule: Q01DX005 (ip), vehicle: Klucel (hydroxypropylcellulose) (HPC)
[8] = dose: 16.0 mg/kg/injection, schedule: Q01DX005 (ip), vehicle: Klucel (hydroxypropylcellulose) (HPC)
[9] = dose: 45.0 mg/kg/injection, schedule: Q01DX005 (ip), vehicle: saline with Tween-80
[10] = dose: 90.0 mg/kg/injection, schedule: Q01DX005 (ip), vehicle: saline with Tween-80
[11] = dose: 180.0 mg/kg/injection, schedule: Q01DX005 (ip), vehicle: saline with Tween-80

Question: For `O=CC(NC(=O)N(CCCl)N=O)C(O)C(O)C(O)CO` (stereo not drawn), which T/C [1] is on record?
Answer: 95 % of control

Question: And the T/C (dose: 0.12 mg/kg/injection, schedule: Q01DX005 (ip), vehicle: saline)?
Answer: 96 % of control and 104 % of control

Question: What about the T/C (dose: 0.13 mg/kg/injection, schedule: Q01DX005 (ip), vehicle: Klucel (hydroxypropylcellulose) (HPC)) of the same compound?
Answer: 88 % of control

Question: And the T/C (dose: 0.13 mg/kg/injection, schedule: Q01DX005 (ip), vehicle: saline)?
Answer: 89 % of control and 105 % of control

Question: And the T/C [2]?
Answer: 96 % of control and 123 % of control

Question: And the T/C (dose: 0.5 mg/kg/injection, schedule: Q01DX005 (ip), vehicle: Klucel (hydroxypropylcellulose) (HPC))?
Answer: 97 % of control and 99 % of control

Question: What about the T/C (dose: 1.0 mg/kg/injection, schedule: Q01DX001 (ip), vehicle: Klucel (hydroxypropylcellulose) (HPC)) of the same compound?
Answer: 96 % of control

Question: What about the T/C [3] of the same compound?
Answer: 100 % of control

Question: And the T/C [4]?
Answer: 97 % of control

Question: And the T/C [5]?
Answer: 96 % of control

Question: What about the T/C [6] of the same compound?
Answer: 114 % of control

Question: What about the T/C (dose: 32.0 mg/kg/injection, schedule: Q01DX005 (oral), vehicle: saline) of the same compound?
Answer: 108 % of control

Question: What about the T/C (dose: 64.0 mg/kg/injection, schedule: Q01DX001 (oral), vehicle: saline) of the same compound?
Answer: 89 % of control

Question: And the T/C (dose: 64.0 mg/kg/injection, schedule: Q01DX005 (oral), vehicle: saline)?
Answer: 89 % of control

Question: What about the T/C (dose: 128.0 mg/kg/injection, schedule: Q01DX001 (oral), vehicle: saline) of the same compound?
Answer: 98 % of control

Question: What about the T/C (dose: 256.0 mg/kg/injection, schedule: Q01DX001 (oral), vehicle: saline) of the same compound?
Answer: 99 % of control

Question: What about the T/C (dose: 512.0 mg/kg/injection, schedule: Q01DX001 (oral), vehicle: saline) of the same compound?
Answer: 95 % of control

Question: What about the T/C (dose: 1024.0 mg/kg/injection, schedule: Q01DX001 (oral), vehicle: saline) of the same compound?
Answer: 99 % of control

Question: For `COc1ccc2c(c1OC(C)=O)-c1cc(O)cc3c1C(C2)N(C(=O)CN(CCCl)CCCl)CC3` (stereo not drawn), which T/C (dose: 12.5 mg/kg/injection, schedule: Q04DX003 (ip), vehicle: saline) is on record?
Answer: 94 % of control

Question: What about the T/C (dose: 25.0 mg/kg/injection, schedule: Q04DX003 (ip), vehicle: saline) of the same compound?
Answer: 99 % of control

Question: What about the T/C (dose: 50.0 mg/kg/injection, schedule: Q04DX003 (ip), vehicle: saline) of the same compound?
Answer: 86 % of control

Question: Which results are given for `O=C(O)CCCc1ccc(N(CCCl)CCCl)cc1`?
Answer: T/C [1]: 115 % of control; T/C [2]: 110 % of control; T/C (dose: 1.0 mg/kg/injection, schedule: Q01DX005 (ip), vehicle: Klucel (hydroxypropylcellulose) (HPC)): 100 % of control; T/C [3]: 100 % of control; T/C (dose: 2.0 mg/kg/injection, schedule: Q01DX005 (ip), vehicle: Klucel (hydroxypropylcellulose) (HPC)): 100 % of control and 111 % of control and 120 % of control; T/C [4]: 106 % of control; T/C (dose: 4.0 mg/kg/injection, schedule: Q01DX005 (ip), vehicle: Klucel (hydroxypropylcellulose) (HPC)): 107 % of control and 109 % of control and 122 % of control; T/C [5]: 105 % of control; T/C [7]: 109 % of control and 110 % of control and 122 % of control; T/C [8]: 96 % of control and 122 % of control

Question: Which T/C [9] does the source give for `ClC1C(Cl)C(Cl)C(Cl)C(Cl)C1Cl` (stereo not drawn) here?
Answer: 96 % of control and 87 % of control

Question: And the T/C [10]?
Answer: 94 % of control and 98 % of control

Question: And the T/C [11]?
Answer: 107 % of control

Question: What about the T/C (dose: 360.0 mg/kg/injection, schedule: Q01DX005 (ip), vehicle: saline with Tween-80) of the same compound?
Answer: 96 % of control and 103 % of control

Question: How did the T/C (dose: 4.0 mg/kg/injection, schedule: Q01DX005 (ip), vehicle: saline) turn out when `C[CH2][Ge]1([CH2]C)[CH2]CC2(CCN(CCCN(C)C)C2)C[CH2]1` was run?
Answer: 104 % of control

Question: And the T/C (dose: 8.0 mg/kg/injection, schedule: Q01DX005 (ip), vehicle: saline)?
Answer: 98 % of control and 101 % of control and 108 % of control

Question: Which results are given for `O=NN(CCF)C(=O)NC1CCCCC1`?
Answer: T/C (dose: 10.0 mg/kg/injection, schedule: Q01DX005 (ip), vehicle: suspension in saline): 123 % of control; T/C (dose: 20.0 mg/kg/injection, schedule: Q01DX005 (ip), vehicle: suspension in saline): 262 % of control

Question: Which results are given for `CN(C)CC(=O)c1ccc(O)c(O)c1`?
Answer: T/C (dose: 100.0 mg/kg/injection, schedule: Q01DX005 (ip), vehicle: saline): 101 % of control; T/C (dose: 200.0 mg/kg/injection, schedule: Q01DX005 (ip), vehicle: saline): 99 % of control; T/C (dose: 400.0 mg/kg/injection, schedule: Q01DX005 (ip), vehicle: saline): 108 % of control

Question: How did the T/C (dose: 24.0 mg/kg/injection, schedule: Q01DX005 (ip), vehicle: saline with Tween-80) turn out when `CCOC(=O)CC(SP(=S)(OC)OC)C(=O)OCC` (stereo not drawn) was run?
Answer: 101 % of control and 104 % of control

Question: And the T/C [9]?
Answer: 101 % of control and 108 % of control

Question: What about the T/C (dose: 50.0 mg/kg/injection, schedule: Q01DX005 (ip), vehicle: suspension in saline) of the same compound?
Answer: 102 % of control

Question: And the T/C [10]?
Answer: 95 % of control and 116 % of control

Question: And the T/C (dose: 100.0 mg/kg/injection, schedule: Q01DX005 (ip), vehicle: suspension in saline)?
Answer: 103 % of control

Question: What about the T/C [11] of the same compound?
Answer: 104 % of control

Question: What about the T/C (dose: 200.0 mg/kg/injection, schedule: Q01DX005 (ip), vehicle: suspension in saline) of the same compound?
Answer: 99 % of control

Question: For `CC(CN1CC(=O)NC(=O)C1)N1CC(=O)NC(=O)C1` (stereo not drawn), which T/C [5] is on record?
Answer: 116 % of control

Question: What about the T/C [7] of the same compound?
Answer: 91 % of control and 112 % of control

Question: And the T/C [6]?
Answer: 87 % of control

Question: What about the T/C [8] of the same compound?
Answer: 110 % of control

Question: What about the T/C (dose: 32.0 mg/kg/injection, schedule: Q01DX001 (ip), vehicle: Klucel (hydroxypropylcellulose) (HPC)) of the same compound?
Answer: 89 % of control and 122 % of control

Question: What about the T/C (dose: 32.0 mg/kg/injection, schedule: Q01DX005 (ip), vehicle: Klucel (hydroxypropylcellulose) (HPC)) of the same compound?
Answer: 105 % of control

Question: What about the T/C (dose: 64.0 mg/kg/injection, schedule: Q01DX001 (ip), vehicle: Klucel (hydroxypropylcellulose) (HPC)) of the same compound?
Answer: 98 % of control and 118 % of control

Question: What about the T/C (dose: 64.0 mg/kg/injection, schedule: Q01DX005 (ip), vehicle: Klucel (hydroxypropylcellulose) (HPC)) of the same compound?
Answer: 90 % of control

Question: And the T/C (dose: 128.0 mg/kg/injection, schedule: Q01DX001 (ip), vehicle: Klucel (hydroxypropylcellulose) (HPC))?
Answer: 95 % of control
